Measured values as given in patent publication US9232799B2, “N-[(het)arylethyl)] pyrazole(thio)carboxamides and their heterosubstituted analogues” (BAYER INTELLECTUAL PROPERTY GMBH, priority 2010, dated 2016).
Values joined by “and” are separate entries in the source; they are usually repeats but may differ in a detail not shown here. Identical values can stand only once. Like-named read-outs stand apart in the source and are kept apart here.

Key:
[1] = logP by HPLC on reversed-phase column (C 18), EEC Directive 79/831 Annex V.A8; type: physicochemical
Protocol: In table 1, the logP values were determined in accordance with EEC Directive 79/831 Annex V.A8 by HPLC (High Performance Liquid Chromatography) on a reversed-phase column (C 18), using the method described below: Temperature: 40° C.; […]

[2] = system: Alternaria solani; experiment: In vivo preventive test on Alternaria solani (tomato); conditions: evaluated 7 days after inoculation
Text: One day after this treatment, the plants are inoculated with an aqueous spore suspension of Alternaria solani.

[3] = system: Pyrenophora teres; experiment: In vivo preventive test on Pyrenophora teres (barley); conditions: 500 ppm of active ingredient, evaluated 7-9 days after inoculation
Text: One day after this treatment, the plants are inoculated with an aqueous spore suspension of Pyrenophora teres.

| Compound | logP [1] | further results |
| --- | --- | --- |
| CC(C)N(CCc1ccc(F)cc1)C(=O)c1c(C(F)F)nn(C)c1F [Example 23] | 3.23 |  |
| Cn1nc(C(F)F)c(C(=O)NCC(C)(C)c2cccc(Oc3ccccc3)c2)c1Cl [Example 149] | 4.15 |  |
| Cn1nc(C(F)F)c(C(=O)NCC(C)(C)c2ccccc2Cl)c1Cl [Example 46] | 3.48 | Efficacy ([2]; 500 ppm of active ingredient): 70% |
| COc1ccc(CCN(C)C(=O)c2c(C(F)F)nn(C)c2Cl)cc1OC [Example 131] | 2.18 |  |
| Cn1nc(C(F)F)c(C(=O)NCC(C)(C)c2ccc(Oc3ccccc3)cc2)c1Cl [Example 158] | 4.21 | Efficacy ([2]; 500 ppm of active ingredient): 80% |
| Cn1nc(C(F)F)c(C(=O)NC(C)(C)Cc2cccc(Oc3ccccc3)c2)c1Cl [Example 144] | 4.30 | Efficacy ([2]; 500 ppm of active ingredient): 95% |
| CCN(CCc1ccc(Cl)cc1)C(=S)c1c(C(F)F)nn(C)c1F [Example 58] | 3.92 | Efficacy [3]: 100% |
| Cn1nc(C(F)F)c(C(=O)NCCc2ccc(Oc3ccccc3)cc2)c1Cl [Example 155] | 3.60 | Efficacy [3]: 100%; Efficacy ([2]; 500 ppm of active ingredient): 95% |
| Cn1nc(C(F)F)c(C(=O)NCCc2c(F)c(F)nc(F)c2F)c1Cl [Example 209] | 2.60 |  |
| Cn1nc(C(F)F)c(C(=O)N(CCc2ccccn2)C2CCCCC2)c1F [Example 175] | 1.48 |  |
| Cn1nc(C(F)F)c(C(=O)NC2CCCCC2c2ccccc2)c1F (stereo not shown) [Example 213] | 3.29 | Efficacy ([2]; 500 ppm of active ingredient): 89% |
| Cn1nc(C(F)F)c(C(=O)NC2CC2c2ccc(F)cc2)c1Cl (stereo not shown) [Example 221] | 2.75 |  |
| COCCN(CCc1ccccn1)C(=O)c1c(C(F)F)nn(C)c1F [Example 177] | 0.50 |  |
| Cc1cc(C)c(CCN(C)C(=O)c2c(C(F)F)nn(C)c2Cl)c(C)c1 [Example 137] | 3.67 | Efficacy ([2]; 500 ppm of active ingredient): 90% |
| Cn1nc(C(F)F)c(C(=O)N(CCC#N)CCc2ccccc2)c1Cl [Example 8] | 2.53 |  |
| Cn1nc(C(F)F)c(C(=O)NCCc2ccccc2C(F)(F)F)c1Cl [Example 122] | 3.11 | Efficacy [3]: 94%; Efficacy ([2]; 500 ppm of active ingredient): 95% |
| COc1ccc(CCN(C(=O)c2c(C(F)F)nn(C)c2Cl)C2CCCCC2)cc1OC [Example 132] | 3.53 |  |
| CN(CCc1ccccn1)C(=O)c1c(C(F)F)nn(C)c1F [Example 179] | 1.47 |  |
| Cn1nc(C(F)F)c(C(=O)NCC(C)(C)c2ccccc2Cl)c1F [Example 45] | 3.27 | Efficacy [3]: 100%; Efficacy ([2]; 500 ppm of active ingredient): 90% |
| Cn1nc(C(F)F)c(C(=O)NCCc2ccc(Cl)nc2)c1F [Example 197] | 1.78 |  |
| Cn1nc(C(F)F)c(C(=O)NC2CCCCC2c2ccccc2)c1Cl (stereo not shown) [Example 214] | 3.33 |  |
| Cn1nc(C(F)F)c(C(=O)NCC(C)(C)c2cc(Cl)cc(Cl)c2)c1Cl [Example 114] | 4.01 | Efficacy [3]: 80% |
| Cn1nc(C(F)F)c(C(=O)N(CCc2ccccc2)C2CCCC2)c1Cl [Example 6] | 3.89 |  |
| CC(C)N(CCc1ccccc1)C(=O)c1c(C(F)F)nn(C)c1F [Example 2] | 3.19 |  |

| Compound | logP [1] | further results |
| --- | --- | --- |
| CCN(C(=O)c1c(C(F)F)nn(C)c1Cl)C(C)C(=O)c1ccccc1 (stereo not shown) [Example 18] | 2.71 |  |
| Cn1nc(C(F)F)c(C(=O)NCCc2ccccc2Oc2ccccc2)c1F [Example 140] | 3.48 | Efficacy [3]: 95%; Efficacy ([2]; 500 ppm of active ingredient): 100% |
| Cn1nc(C(F)F)c(C(=O)N(CCc2ccncc2)C2CCCCC2)c1F [Example 200] | 1.39 |  |
| CC(CN(C)C(=O)c1c(C(F)F)nn(C)c1F)c1ccncc1 (stereo not shown) [Example 206] | 1.60 |  |
| Cn1nc(C(F)F)c(C(=O)NCC(C)(C)c2ccc(Cl)cc2)c1F [Example 63] | 3.37 | Efficacy [3]: 94%; Efficacy ([2]; 500 ppm of active ingredient): 90% |
| Cn1nc(C(F)F)c(C(=S)N(C2CC2)C2CCCCC2(C)c2ccccc2)c1F (mixture of isomers) [Example 219] |  | logP ([1]; HPLC on reversed-phase column (C 18), 40° C., 0.1% aqueous formic acid and acetonitrile, linear gradient 10% to 90% acetonitrile): 5.01 and 5.11 |
| CN(CCc1ccccn1)C(=O)c1c(C(F)F)nn(C)c1Cl [Example 183] | 1.63 |  |
| CCN(CCc1ccc(Cl)cc1)C(=O)c1c(C(F)F)nn(C)c1Cl [Example 57] | 3.35 | Efficacy [3]: 70%; Efficacy ([2]; 500 ppm of active ingredient): 80% |
| Cn1nc(C(F)F)c(C(=O)N(CCc2ccccn2)C2CCCCC2)c1Cl [Example 180] | 1.58 |  |
| CC(Cc1cccc(Cl)c1)NC(=O)c1c(C(F)F)nn(C)c1Cl (stereo not shown) [Example 48] | 3.17 | Efficacy [3]: 100%; Efficacy ([2]; 500 ppm of active ingredient): 95% |
| Cn1nc(C(F)F)c(C(=O)N(CCc2ccccn2)C2CCCC2)c1Cl [Example 181] | 1.40 |  |
| Cn1nc(C(F)F)c(C(=O)NCC(C)(C)c2cccc(Cl)c2)c1F [Example 53] | 3.31 | Efficacy [3]: 94%; Efficacy ([2]; 500 ppm of active ingredient): 70% |
| Cn1nc(C(F)F)c(C(=O)N(C[Si](C)(C)c2ccc3ccccc3c2)C2CC2)c1Cl [Example 246] | 4.51 |  |
| Cn1nc(C(F)F)c(C(=S)NCC(C)(C)c2ccc(Cl)cc2Cl)c1Cl [Example 89] | 4.72 | Efficacy [3]: 100% |
| Cn1nc(C(F)F)c(C(=O)NCC(C)(C)c2cccc(Oc3ccccc3)c2)c1F [Example 148] | 3.92 |  |
| Cn1nc(C(F)F)c(C(=O)N(CCc2ccccn2)C2CCCC2)c1F [Example 176] | 1.29 |  |
| Cn1nc(C(F)F)c(C(=O)NC2CC2c2cccc(F)c2)c1Cl (stereo not shown) [Example 223] | 2.75 |  |
| CC(C)N(CCc1ccncc1)C(=O)c1c(C(F)F)nn(C)c1Cl [Example 205] | 0.98 |  |
| Cn1nc(C(F)F)c(C(=S)NCCc2ccc(Cl)cc2Cl)c1Cl [Example 72] | 4.11 | Efficacy [3]: 100%; Efficacy ([2]; 500 ppm of active ingredient): 94% |
| Cn1nc(C(F)F)c(C(=O)N(CCc2ccccc2)CC(F)(F)F)c1Cl [Example 10] | 3.39 |  |
| Cn1nc(C(F)F)c(C(=O)NC2CC2c2ccccc2C(F)(F)F)c1Cl (stereo not shown) [Example 226] | 3.15 |  |
| CN(CCc1ccccc1)C(=O)c1c(C(F)F)nn(C)c1Cl [Example 9] | 2.60 | Efficacy [3]: 95%; Efficacy ([2]; 500 ppm of active ingredient): 95% |
| CC(C)N(CCc1ccncc1)C(=O)c1c(C(F)F)nn(C)c1F [Example 198] | 0.78 |  |
| COCCN(CCc1ccncc1)C(=O)c1c(C(F)F)nn(C)c1F [Example 199] | 1.56 |  |

| Compound | logP [1] | further results |
| --- | --- | --- |
| Cn1nc(C(F)F)c(C(=O)NCCc2cccc(Oc3ccccc3)c2)c1Cl [Example 145] | 3.55 | Efficacy ([2]; 500 ppm of active ingredient): 95% |
| Cn1nc(C(F)F)c(C(=O)NCC(C)(C)c2cccc(Cl)c2)c1Cl [Example 54] | 3.53 |  |
| Cn1nc(C(F)F)c(C(=O)NCCc2ccccc2Oc2ccccc2)c1Cl [Example 141] | 3.64 | Efficacy ([2]; 500 ppm of active ingredient): 80% |
| Cn1nc(C(F)F)c(C(=O)NCC(C)(C)c2ccc(Cl)cc2)c1Cl [Example 64] | 3.58 | Efficacy ([2]; 500 ppm of active ingredient): 100% |
| CN(CC(=O)c1ccc(Cl)cc1)C(=O)c1c(C(F)F)nn(C)c1Cl [Example 62] | 2.68 |  |
| CC(C)N(CCc1ccccn1)C(=O)c1c(C(F)F)nn(C)c1F [Example 178] | 0.85 |  |
| Cn1nc(C(F)F)c(C(=O)NCCc2ccc(Cl)nc2)c1Cl [Example 196] | 1.90 |  |
| COCCN(CCc1ccccn1)C(=O)c1c(C(F)F)nn(C)c1Cl [Example 184] | 0.63 |  |
| Cn1nc(C(F)F)c(C(=O)N(CCC#N)CCc2ccccc2)c1F [Example 3] | 2.39 |  |
| Cn1nc(C(F)F)c(C(=O)NCC(C)(C)c2ccc(Oc3ccccc3)cc2)c1F [Example 157] | 4.06 | Efficacy [3]: 80% |
| Cn1nc(C(F)F)c(C(=S)NC[Si](C)(C)c2ccc(Cl)cc2Cl)c1F [Example 241] | 4.74 | Efficacy [3]: 100% |
| CC(C)N(CCc1ccccc1)C(=O)c1c(C(F)F)nn(C)c1Cl [Example 7] | 3.35 |  |
| Cn1nc(C(F)F)c(C(=O)N(CCc2ccncc2)C2CCCC2)c1F [Example 201] | 1.20 |  |
| COC(CNC(=O)c1cn(C)nc1C(F)F)c1ccc(Cl)cc1Cl (stereo not shown) [1.02 from WO-2008/148570, N-[2-(2,4-dichlorophenyl)-2-methoxyethyl]-3-(difluoromethyl)-1-methyl-1H-pyrazole-4-carboxamide, reference compound] |  | Efficacy ([2]; 100 ppm of active ingredient): 40%; Efficacy ([2]; 100 ppm of active ingredient, listed as 1.02): less than 40%; Efficacy ([2]; 500 ppm of active ingredient): 80%; Efficacy ([2]; 500 ppm of active ingredient, listed as 1.02): at least 80% |
| Cn1nc(C(F)F)c(C(=O)N(CCc2ccncc2)C2CCCCC2)c1Cl [Example 203] | 1.50 |  |
| Cn1nc(C(F)F)c(C(=O)N(CCc2ccccc2)C2CCCC2)c1F [Example 1] | 3.69 |  |
| Cc1cc(C)c(CCN(C(=O)c2c(C(F)F)nn(C)c2Cl)C(C)C)c(C)c1 [Example 136] | 4.49 |  |
| COc1ccc(CCN(C(=O)c2c(C(F)F)nn(C)c2F)C2CCCCC2)cc1OC [Example 130] | 3.42 |  |
| CC(C)N(CCc1ccc(F)cc1)C(=O)c1c(C(F)F)nn(C)c1Cl [Example 25] | 3.37 |  |
| Cc1cc(C)c(CCN(C(=O)c2c(C(F)F)nn(C)c2F)C(C)C)c(C)c1 [Example 134] | 4.30 |  |
| CC(C)N(CCc1ccccn1)C(=O)c1c(C(F)F)nn(C)c1Cl [Example 182] | 1.00 |  |
| Cn1nc(C(F)F)c(C(=O)N(CCc2ccncc2)C2CCCC2)c1Cl [Example 204] | 1.32 |  |
| Cn1nc(C(F)F)c(C(=O)N(CCc2ccccc2)CC(F)(F)F)c1F [Example 5] | 3.25 | Efficacy [3]: 80% |
| Cc1cccnc1CC(NC(=O)c1c(C(F)F)nn(C)c1Cl)C(F)(F)F (stereo not shown) [Example 186] | 1.70 |  |
